Numbers after ± are expanded uncertainties.
Conditions: Liquid

ClCCCCCl [1,4-dichlorobutane]
mass density [kg/m3]
Conditions	288.15 K	298.15 K	308.15 K	318.15 K
100 kPa	1143.7 ± 3.5	1133.7 ± 3.4	1122.3 ± 3.3	1112 ± 3.2
500 kPa	1144.1 ± 3.5	1134 ± 3.4	1122.7 ± 3.3	1112.4 ± 3.2
1000 kPa	1144.5 ± 3.5	1134.4 ± 3.4	1123.1 ± 3.3	1112.8 ± 3.2
1500 kPa	1144.8 ± 3.6	1134.8 ± 3.5	1123.5 ± 3.4	1113.2 ± 3.3
2000 kPa	1145.2 ± 3.6	1135.2 ± 3.5	1123.9 ± 3.4	1113.7 ± 3.3
2500 kPa	1145.5 ± 3.6	1135.6 ± 3.5	1124.3 ± 3.4	1114.1 ± 3.3
3000 kPa	1145.9 ± 3.7	–	–	–
3100 kPa	–	1136.1 ± 3.6	1124.8 ± 3.5	1114.7 ± 3.4
3500 kPa	–	–	–	1115 ± 3.4
3600 kPa	1146.4 ± 3.7	1136.4 ± 3.6	1125.2 ± 3.5	–
4100 kPa	1146.7 ± 3.8	1136.8 ± 3.7	1125.6 ± 3.5	1115.5 ± 3.4
4600 kPa	1147 ± 3.8	1137.2 ± 3.7	1126 ± 3.6	1115.9 ± 3.5
5100 kPa	1147.4 ± 3.8	1137.6 ± 3.7	1126.4 ± 3.6	1116.3 ± 3.5
5600 kPa	1147.7 ± 3.9	1137.9 ± 3.8	1126.9 ± 3.6	1116.8 ± 3.5
6100 kPa	1148.1 ± 3.9	1138.4 ± 3.8	1127.2 ± 3.7	1117.3 ± 3.6
6600 kPa	1148.5 ± 4	1138.7 ± 3.8	1127.5 ± 3.7	1117.7 ± 3.6
7100 kPa	1148.9 ± 4	1139.1 ± 3.9	1128 ± 3.7	1118.1 ± 3.6
7600 kPa	1149.2 ± 4	1139.4 ± 3.9	1128.4 ± 3.8	1118.4 ± 3.7
8100 kPa	1149.5 ± 4.1	1139.8 ± 4	1128.8 ± 3.8	1118.9 ± 3.7
8600 kPa	1149.9 ± 4.1	1140.2 ± 4	1129.2 ± 3.9	1119.3 ± 3.7
9200 kPa	1150.3 ± 4.2	1140.6 ± 4	1129.6 ± 3.9	1119.8 ± 3.8
9600 kPa	1150.7 ± 4.2	1141 ± 4.1	1130 ± 3.9	1120.2 ± 3.8
10100 kPa	1151 ± 4.2	1141.4 ± 4.1	1130.4 ± 4	1120.6 ± 3.8
10600 kPa	1151.3 ± 4.3	–	1130.9 ± 4	1121 ± 3.9
10700 kPa	–	1141.8 ± 4.2	–	–
11100 kPa	1151.7 ± 4.3	1142.1 ± 4.2	1131.2 ± 4	1121.4 ± 3.9
11600 kPa	1152 ± 4.4	1142.4 ± 4.2	1131.5 ± 4.1	1121.8 ± 3.9
12100 kPa	1152.4 ± 4.4	1142.8 ± 4.3	1131.9 ± 4.1	1122.1 ± 4
12600 kPa	1152.7 ± 4.4	1143.2 ± 4.3	1132.4 ± 4.1	1122.6 ± 4
13000 kPa	–	–	–	1123 ± 4
13100 kPa	1153.1 ± 4.5	1143.6 ± 4.3	1132.6 ± 4.2	–
13500 kPa	1153.3 ± 4.5	–	–	–
13600 kPa	–	1143.9 ± 4.4	1133.1 ± 4.2	1123.3 ± 4.1
14100 kPa	–	1144.2 ± 4.4	1133.5 ± 4.2	–
14200 kPa	1153.8 ± 4.6	–	–	1123.9 ± 4.1
14700 kPa	1154.1 ± 4.6	1144.6 ± 4.5	1133.9 ± 4.3	1124.4 ± 4.1
15100 kPa	–	–	1134.2 ± 4.3	–
15200 kPa	1154.4 ± 4.6	1145 ± 4.5	–	1124.7 ± 4.2
15700 kPa	1154.8 ± 4.7	1145.4 ± 4.5	1134.6 ± 4.4	1125.1 ± 4.2
16200 kPa	–	1145.8 ± 4.6	1135 ± 4.4	–
16300 kPa	1155.2 ± 4.7	–	–	1125.4 ± 4.3
16700 kPa	–	1146.1 ± 4.6	1135.3 ± 4.4	–
16800 kPa	1155.6 ± 4.8	–	–	1126 ± 4.3
17200 kPa	–	1146.5 ± 4.7	1135.7 ± 4.5	–
17300 kPa	1155.9 ± 4.8	–	–	1126.3 ± 4.3
17800 kPa	1156.2 ± 4.9	1146.9 ± 4.7	1136.1 ± 4.5	1126.5 ± 4.4
18300 kPa	1156.5 ± 4.9	1147.2 ± 4.7	1136.5 ± 4.6	1127 ± 4.4
18800 kPa	1156.8 ± 4.9	1147.6 ± 4.8	1136.8 ± 4.6	1127.4 ± 4.4
19100 kPa	1157.1 ± 5	–	–	–
19200 kPa	–	1147.9 ± 4.8	1137.2 ± 4.6	1127.7 ± 4.5
19700 kPa	1157.4 ± 5	1148.2 ± 4.9	1137.6 ± 4.7	1128 ± 4.5
20200 kPa	1157.8 ± 5.1	1148.7 ± 4.9	1138 ± 4.7	1128.4 ± 4.5

ClCCCCCCCl [1,6-dichlorohexane]
mass density [kg/m3]
Conditions	288.15 K	298.15 K	308.15 K	318.15 K
100 kPa	1073.7 ± 1.4	1063.8 ± 1.4	1054.6 ± 1.3	1045.1 ± 1.3
500 kPa	1073.9 ± 1.4	1064.2 ± 1.4	1054.9 ± 1.3	1045.3 ± 1.3
1000 kPa	1074.3 ± 1.4	1064.4 ± 1.4	1055.2 ± 1.3	1045.7 ± 1.3
1500 kPa	–	1064.8 ± 1.4	1055.5 ± 1.3	1046.2 ± 1.3
1600 kPa	1074.6 ± 1.4	–	–	–
2000 kPa	1075 ± 1.5	1065.2 ± 1.4	1055.9 ± 1.4	1046.6 ± 1.3
2500 kPa	1075.3 ± 1.5	1065.5 ± 1.4	1056.3 ± 1.4	1046.9 ± 1.3
3100 kPa	1075.7 ± 1.5	1065.9 ± 1.4	1056.7 ± 1.4	1047.4 ± 1.3
3600 kPa	1076 ± 1.5	1066.3 ± 1.4	1057.1 ± 1.4	1047.8 ± 1.3
4100 kPa	1076.3 ± 1.5	1066.7 ± 1.5	1057.4 ± 1.4	1048.1 ± 1.3
4500 kPa	–	1066.9 ± 1.5	–	–
4600 kPa	1076.6 ± 1.5	–	1057.8 ± 1.4	1048.4 ± 1.4
5000 kPa	–	1067.3 ± 1.5	–	–
5100 kPa	1076.9 ± 1.5	–	1058.2 ± 1.4	1048.9 ± 1.4
5600 kPa	1077.3 ± 1.6	1067.6 ± 1.5	1058.5 ± 1.4	1049.2 ± 1.4
6100 kPa	1077.6 ± 1.6	1068 ± 1.5	1058.9 ± 1.4	1049.7 ± 1.4
6500 kPa	1077.9 ± 1.6	–	–	–
6600 kPa	–	1068.4 ± 1.5	1059.2 ± 1.5	1050 ± 1.4
7100 kPa	1078.3 ± 1.6	1068.7 ± 1.5	1059.6 ± 1.5	1050.4 ± 1.4
7600 kPa	1078.5 ± 1.6	1069 ± 1.5	1059.8 ± 1.5	1050.7 ± 1.4
8100 kPa	1078.9 ± 1.6	1069.4 ± 1.6	1060.2 ± 1.5	1051.2 ± 1.4
8500 kPa	–	–	–	1051.4 ± 1.4
8600 kPa	1079.2 ± 1.6	1069.7 ± 1.6	1060.6 ± 1.5	–
9100 kPa	1079.5 ± 1.7	–	–	1051.8 ± 1.4
9200 kPa	–	1070.1 ± 1.6	1061 ± 1.5	–
9600 kPa	1079.9 ± 1.7	1070.4 ± 1.6	1061.4 ± 1.5	1052.2 ± 1.5
10100 kPa	1080.2 ± 1.7	1070.7 ± 1.6	1061.7 ± 1.5	1052.6 ± 1.5
10600 kPa	1080.5 ± 1.7	1071.1 ± 1.6	1062.1 ± 1.6	–
10700 kPa	–	–	–	1053.1 ± 1.5
11000 kPa	–	1071.3 ± 1.6	–	–
11100 kPa	1080.8 ± 1.7	–	1062.4 ± 1.6	1053.6 ± 1.5
11600 kPa	1081.2 ± 1.7	–	1062.7 ± 1.6	1053.9 ± 1.5
11700 kPa	–	1071.7 ± 1.7	–	–
12100 kPa	1081.5 ± 1.8	1071.9 ± 1.7	1063.1 ± 1.6	1054.1 ± 1.5
12600 kPa	1081.8 ± 1.8	1072.3 ± 1.7	1063.5 ± 1.6	1054.5 ± 1.5
13100 kPa	1082.1 ± 1.8	1072.6 ± 1.7	1063.8 ± 1.6	1054.8 ± 1.5
13600 kPa	1082.4 ± 1.8	1072.9 ± 1.7	1064.1 ± 1.6	1055.3 ± 1.6
14100 kPa	–	–	1064.5 ± 1.6	–
14200 kPa	1082.8 ± 1.8	1073.3 ± 1.7	–	1055.6 ± 1.6
14700 kPa	1083 ± 1.8	1073.6 ± 1.7	–	1056 ± 1.6
14800 kPa	–	–	1064.9 ± 1.7	–
15100 kPa	–	–	1065.1 ± 1.7	–
15200 kPa	1083.4 ± 1.8	1074 ± 1.8	–	1056.3 ± 1.6
15600 kPa	–	–	–	1056.6 ± 1.6
15700 kPa	1083.7 ± 1.9	1074.3 ± 1.8	1065.5 ± 1.7	–
16200 kPa	–	–	1065.8 ± 1.7	–
16300 kPa	1084 ± 1.9	–	–	1057.1 ± 1.6
16400 kPa	–	1074.8 ± 1.8	–	–
16700 kPa	–	–	1066.2 ± 1.7	–
16800 kPa	1084.3 ± 1.9	1075.2 ± 1.8	–	1057.3 ± 1.6
17300 kPa	1084.6 ± 1.9	1075.5 ± 1.8	1066.6 ± 1.7	1057.7 ± 1.6
17800 kPa	1084.9 ± 1.9	1075.8 ± 1.8	1066.9 ± 1.7	1058 ± 1.7
18300 kPa	1085.3 ± 1.9	1076.1 ± 1.9	1067.2 ± 1.8	1058.3 ± 1.7
18700 kPa	–	1076.4 ± 1.9	1067.4 ± 1.8	–
18800 kPa	1085.5 ± 2	–	–	–
18900 kPa	–	–	–	1058.8 ± 1.7
19200 kPa	1085.7 ± 2	1076.7 ± 1.9	1067.8 ± 1.8	1059 ± 1.7
19700 kPa	1086 ± 2	1076.9 ± 1.9	1068 ± 1.8	1059.3 ± 1.7
20200 kPa	1086.5 ± 2	1077.3 ± 1.9	–	1059.6 ± 1.7
20300 kPa	–	–	1068.5 ± 1.8	–
